Assay results reported in PMC10054465, “Design, Synthesis, and Antiviral Activities of New Benzotriazole-Based Derivatives” (Pharmaceuticals, 2023).
Where two headings read alike, the source gives them in different places.

What was measured:
CVB5 = assay: microbe, parasite or virus in culture; type: cell-based, human enterovirus B (coxsackievirus B5); conditions: for EC50: Enterovirus B, CVB5, Vero 76, read-out: CVB5 EC50
BVDV = assay: microbe, parasite or virus in culture; type: cell-based; conditions: Bovine viral diarrhea virus isolates and strains, MDBK
[1] = Cytotoxicity in mock-infected MDBK cells (MTT); conditions: cattle (Bos taurus)
[2] = Cytotoxicity in mock-infected Vero-76 monolayers; conditions: African green monkey (Cercopithecus aethiops), Vero-76 cell monolayers, mock-infected
[3] = Cytotoxicity in mock-infected BHK-21 monolayers (MTT); conditions: Syrian hamster (Mesocricetus auratus), BHK-21 cell monolayers, mock-infected
HSV-1 = assay: microbe, parasite or virus in culture; type: cell-based, human herpesvirus 1; conditions: Human alphaherpesvirus 1, Vero 76, read-out: HSV-1 EC50
YFV = assay: microbe, parasite or virus in culture; type: cell-based; conditions: Yellow fever virus, BHK-21, read-out: YFV EC50
Sb-1 = assay: microbe, parasite or virus in culture; type: cell-based, human enterovirus C (poliovirus type-1); conditions: Enterovirus C, Vero 76, read-out: Sb-1 EC50

## CCCNC(=O)Nc1ccc(Cn2nnc3ccccc32)cc1
other
  melting point: 165 to 167 °C

## O=C(Nc1ccc(Cn2nnc3ccccc32)cc1)NC1CCCCC1
other
  melting point: 141 to 143 °C

## O=C(Nc1ccccc1)Nc1ccc(Cn2nnc3ccccc32)cc1
other
  melting point: 159 to 161 °C

## CCNC(=O)Nc1ccc(Cn2nnc3cc(F)c(F)cc32)cc1
other
  melting point: 286 to 287 °C

## CCCNC(=O)Nc1ccc(Cn2nnc3cc(F)c(F)cc32)cc1
other
  melting point: 286 to 287 °C

## CCCCNC(=O)Nc1ccc(Cn2nnc3cc(F)c(F)cc32)cc1
other
  melting point: 193 to 194 °C

## O=C(Nc1ccc(Cn2nnc3cc(F)c(F)cc32)cc1)NC1CCCCC1
other
  melting point: 203 to 204 °C

## CC(=O)Nc1ccc(Cn2nnc3c(F)cccc32)cc1
other
  melting point: 233 to 234 °C

## CCC(=O)Nc1ccc(Cn2nnc3c(F)cccc32)cc1
other
  melting point: 244 to 246 °C

## CCCC(=O)Nc1ccc(Cn2nnc3c(F)cccc32)cc1
other
  melting point: 215 to 216 °C

## O=C(Nc1ccc(Cn2nnc3c(F)cccc32)cc1)c1ccccc1
other
  melting point: 214 to 217 °C

## COc1ccc(C(=O)Nc2ccc(Cn3nnc4c(F)cccc43)cc2)cc1
other
  melting point: 266 to 268 °C

## O=C(Nc1ccc(Cn2nnc3c(F)cccc32)cc1)c1ccc([N+](=O)[O-])cc1
other
  melting point: 272 to 274 °C

## CC(=O)Nc1cccc(Cn2nc3cc(C)c(C)cc3n2)c1
other
  melting point: 184 to 187 °C

## CCC(=O)Nc1cccc(Cn2nc3cc(C)c(C)cc3n2)c1
other
  melting point: 178 to 182 °C

## Cc1cc2nn(Cc3cccc(NC(=O)c4ccc(Cl)cc4)c3)nc2cc1C
other
  melting point: 246 to 247 °C

## Cc1cc2nn(Cc3cccc(NC(=O)c4ccc(Br)cc4)c3)nc2cc1C
other
  melting point: 267 to 268 °C

## Cc1cc2nn(Cc3cccc(NC(=O)c4ccc([N+](=O)[O-])cc4)c3)nc2cc1C
other
  melting point: 184 to 187 °C

## CCNC(=O)Nc1cccc(Cn2nc3cc(C)c(C)cc3n2)c1
other
  melting point: 218 to 219 °C

## CCCNC(=O)Nc1cccc(Cn2nc3cc(C)c(C)cc3n2)c1
other
  melting point: 204 to 206 °C

## Cc1cc2nn(Cc3cccc(NC(=O)NC4CCCC4)c3)nc2cc1C
other
  melting point: 298 to 299 °C

## Cc1cc2nn(Cc3cccc(NC(=O)NC4CCCCC4)c3)nc2cc1C
other
  melting point: 299 to 300 °C

## CC(=O)Nc1cccc(Cn2nnc3cc(C)c(C)cc32)c1
other
  melting point: 198 to 200 °C

## CCC(=O)Nc1cccc(Cn2nnc3cc(C)c(C)cc32)c1
other
  melting point: 155 to 157 °C

## Cc1ccc(C(=O)Nc2cccc(Cn3nnc4cc(Cl)c(Cl)cc43)c2)cc1
other
  melting point: 199 to 200 °C

## COc1ccc(C(=O)Nc2cccc(Cn3nnc4cc(Cl)c(Cl)cc43)c2)cc1
other
  melting point: 221 to 223 °C

## O=C(Nc1cccc(Cn2nnc3cc(Cl)c(Cl)cc32)c1)c1ccc(F)cc1
other
  melting point: 184 to 186 °C

## N#Cc1ccc(C(=O)Nc2cccc(Cn3nnc4cc(Cl)c(Cl)cc43)c2)cc1
other
  melting point: 167 to 169 °C

## O=C(Nc1cccc(Cn2nnc3cc(Cl)c(Cl)cc32)c1)c1ccc(C(F)(F)F)cc1
other
  melting point: 211 to 213 °C

## O=C(Nc1cccc(Cn2nnc3cc(Cl)c(Cl)cc32)c1)c1ccc([N+](=O)[O-])cc1
other
  melting point: 217 to 218 °C

## Nc1ccc(C(=O)Nc2cccc(Cn3nnc4cc(Cl)c(Cl)cc43)c2)cc1
other
  melting point: 101 to 102 °C

## Cc1ccc(C(=O)Nc2cccc(Cn3nnc4cc(C)c(C)cc43)c2)cc1
other
  melting point: 211 to 212 °C

## COc1ccc(C(=O)Nc2cccc(Cn3nnc4cc(C)c(C)cc43)c2)cc1
other
  melting point: 203 to 206 °C

## Cc1cc2nnn(Cc3cccc(NC(=O)c4ccc(F)cc4)c3)c2cc1C
other
  melting point: 143 to 147 °C

## Cc1cc2nnn(Cc3cccc(NC(=O)c4ccc(Br)cc4)c3)c2cc1C
other
  melting point: 237 to 238 °C

## Cc1cc2nnn(Cc3cccc(NC(=O)c4ccc(C#N)cc4)c3)c2cc1C
other
  melting point: 242 to 247 °C

## Cc1cc2nnn(Cc3cccc(NC(=O)c4ccc(C(F)(F)F)cc4)c3)c2cc1C
other
  melting point: 201 to 203 °C

## Cc1cc2nnn(Cc3cccc(NC(=O)c4ccc([N+](=O)[O-])cc4)c3)c2cc1C
other
  melting point: 227 to 230 °C

## CCNC(=O)Nc1cccc(Cn2nnc3cc(Cl)c(Cl)cc32)c1
other
  melting point: 244 to 245 °C

## CCCNC(=O)Nc1cccc(Cn2nnc3cc(Cl)c(Cl)cc32)c1
other
  melting point: > 300 °C

## CCCCNC(=O)Nc1cccc(Cn2nnc3cc(Cl)c(Cl)cc32)c1
other
  melting point: 232 to 233 °C

## O=C(Nc1cccc(Cn2nnc3cc(Cl)c(Cl)cc32)c1)NC1CCCC1
other
  melting point: 231 to 232 °C

## CCNC(=O)Nc1cccc(Cn2nnc3cc(C)c(C)cc32)c1
other
  melting point: 271 to 273 °C

## CCCNC(=O)Nc1cccc(Cn2nnc3cc(C)c(C)cc32)c1
other
  melting point: 189 to 191 °C

## CCC(C)NC(=O)Nc1cccc(Cn2nnc3cc(C)c(C)cc32)c1 (stereo not shown)
other
  melting point: 202 to 204 °C

## CCCCNC(=O)Nc1cccc(Cn2nnc3cc(C)c(C)cc32)c1
other
  melting point: 195 to 197 °C

## Cc1cc2nnn(Cc3cccc(NC(=O)NC(C)(C)C)c3)c2cc1C
other
  melting point: 189 to 191 °C

## Cc1cc2nnn(Cc3cccc(NC(=O)NC4CCCC4)c3)c2cc1C
other
  melting point: 290 to 292 °C

## Cc1cc2nnn(Cc3cccc(NC(=O)NC4CCCCC4)c3)c2cc1C
other
  melting point: 233 to 235 °C

## COc1ccc(NC(=O)Nc2cccc(Cn3nnc4cc(C)c(C)cc43)c2)cc1
other
  melting point: 233 to 235 °C

## COc1cc(NC(=O)Nc2cccc(Cn3nnc4cc(C)c(C)cc43)c2)cc(OC)c1OC
other
  melting point: 206 to 208 °C

## Cc1cc2nnn(Cc3cccc(NC(=O)Nc4ccc(F)cc4)c3)c2cc1C
other
  melting point: 245 to 247 °C

## Cc1cc2nnn(Cc3cccc(NC(=O)Nc4ccc(Cl)cc4)c3)c2cc1C
other
  melting point: 249 to 251 °C

## CCC(=O)Nc1ccc(Cn2nnc3ccccc32)cc1
other
  melting point: 192 to 195 °C

## CC(=O)Nc1ccc(Cn2nnc3cc(F)c(F)cc32)cc1
other
  melting point: 242 to 243 °C

## CCC(=O)Nc1ccc(Cn2nnc3cc(F)c(F)cc32)cc1
other
  melting point: 240 to 242 °C

## COc1ccc(C(=O)Nc2ccc(Cn3nnc4cc(C)c(C)cc43)cc2)cc1
other
  melting point: 196 to 198 °C

## Cc1cc2nnn(Cc3ccc(NC(=O)c4ccc([N+](=O)[O-])cc4)cc3)c2cc1C
other
  melting point: 192 to 194 °C

## O=C(Nc1ccc(Cn2nnc3ccccc32)cc1)c1ccc([N+](=O)[O-])cc1
other
  melting point: 245 to 246 °C

## COc1cc(C(=O)Nc2ccc(Cn3nnc4ccccc43)cc2)cc(OC)c1OC
other
  melting point: 147 to 149 °C

## O=C(Nc1ccc(Cn2nnc3ccccc32)cc1)c1ccc(OC(F)(F)F)cc1
other
  melting point: 229 to 231 °C

## Cc1ccc(C(=O)Nc2ccc(Cn3nnc4cc(F)c(F)cc43)cc2)cc1
other
  melting point: 297 to 299 °C

## O=C(Nc1ccc(Cn2nnc3cc(F)c(F)cc32)cc1)c1ccc([N+](=O)[O-])cc1
other
  melting point: 240 to 242 °C

## O=C(Nc1ccc(Cn2nnc3cc(F)c(F)cc32)cc1)c1ccc(F)cc1
other
  melting point: 241 to 242 °C

## O=C(Nc1ccc(Cn2nnc3cc(F)c(F)cc32)cc1)c1ccc(Cl)cc1
other
  melting point: 263 to 264 °C

## O=C(Nc1ccc(Cn2nnc3cc(F)c(F)cc32)cc1)c1ccc(Br)cc1
other
  melting point: 235 to 236 °C

## CCNC(=O)Nc1ccc(Cn2nnc3cc(Cl)c(Cl)cc32)cc1
other
  melting point: 211 to 212 °C

## CCCNC(=O)Nc1ccc(Cn2nnc3cc(Cl)c(Cl)cc32)cc1
other
  melting point: 213 to 214 °C

## CCCCNC(=O)Nc1ccc(Cn2nnc3cc(Cl)c(Cl)cc32)cc1
other
  melting point: 216 to 217 °C

## O=C(Nc1ccc(Cn2nnc3cc(Cl)c(Cl)cc32)cc1)NC1CCCCC1
other
  melting point: 130 to 132 °C

## Cc1cc2nnn(Cc3ccc(N)cc3)c2cc1C [12b]
CVB5
  EC50: 100 µM
other
  melting point: 184 to 186 °C

## Nc1ccc(Cn2nnc3c(F)cccc32)cc1 [12e]
CVB5
  EC50: 100 µM
other
  melting point: 164 to 167 °C

## CC(=O)Nc1cccc(Cn2nnc3cc(Cl)c(Cl)cc32)c1 [35a]
CVB5
  antiviral activity (in words): no antiviral activity

## CCC(=O)Nc1cccc(Cn2nnc3cc(Cl)c(Cl)cc32)c1 [36a]
CVB5
  antiviral activity (in words): no antiviral activity
other
  melting point: 145 to 146 °C

## COc1cc(C(=O)Nc2cccc(Cn3nnc4cc(C)c(C)cc43)c2)cc(OC)c1OC [51b]
other
  melting point: 160 to 162 °C

## Cc1cc2nnn(Cc3cccc(NC(=O)c4ccc(Cl)cc4)c3)c2cc1C [53b]
other
  melting point: 227 to 229 °C

## COc1ccc(C(=O)Nc2ccc(Cn3nnc4ccccc43)cc2)cc1 [86c]
BVDV; read-out: BVDV EC50
  EC50: 3 µM
other
  melting point: 172 to 174 °C
[1]; mock-infected
  CC50: 87 µM
[2]
  CC50: 85 µM
[3]
  CC50: 95 µM

## Nc1nc2c(ncn2COCCO)c(=O)[nH]1 [ACG, acycloguanosine, reference compound]
HSV-1
  EC50: 2.4 ± 0.6 µM
[2]
  CC50: > 100 µM

## C[C@@]1(O)[C@H](O)[C@@H](CO)O[C@H]1n1cnc2c(=O)[nH]c(N)nc21 [NM108, 2′-C-methyl-guanosine, reference compound]
BVDV; read-out: BVDV EC50
  EC50: 1.5 µM
YFV
  EC50: 1 µM
[1]; mock-infected
  CC50: > 100 µM
[3]
  CC50: > 100 µM

## Cc1cc(CCCOc2c(C)cc(-c3noc(C(F)(F)F)n3)cc2C)on1 [Plec, pleconaril, reference compound]
CVB5
  EC50: 0.005 ± 0.002 µM
Sb-1
  EC50: 2 ± 0.62 µM
[2]
  CC50: 77 ± 6.8 µM

## NC(=O)c1ncn([C@@H]2O[C@H](CO)[C@@H](O)[C@H]2O)n1 [Ribav, ribavirin, reference compound]
BVDV; read-out: BVDV EC50
  EC50: 12 µM
BVDV; read-out: BVDV EC50, second value after slash
  EC50: 18 µM
[1]
  CC50: 52 µM
[1]; mock-infected
  CC50: 35 µM
